Activity calls are given as the source filed them. The rule behind the calls is not given here.
Assay: GAL4-VP16 transactivation reporter inhibitors, late-stage follow-up, counter-screen for LRH-1 inverse agonist project, cell-based, luminescence, dose response (AID 651974)
Conditions: HEK293 cells transfected with Gal4-VP16 and pGL4.31 luciferase reporter

| SMILES | IC50 |
| --- | --- |
| Cc1cc(C)c2nc(NC(=O)c3ccc([N+](=O)[O-])o3)sc2c1 | > 35.9 µM (inactive) |
| COc1ccc(CCNC(=O)CSc2ccc(NC(C)=O)cc2)cc1OC | > 35.9 µM (inactive) |
| CC1SC(C)C(=O)N(CC(=O)Nc2ccc3c(c2)OCO3)C1=O (stereo not given) | > 35.9 µM (inactive) |
| Cc1sc(NC(=O)C(C)C)c(C(=O)Nc2ccccc2)c1C | > 35.9 µM (inactive) |
| COc1ccc(CCNC(=O)CSc2nn3c(=O)c(C)nnc3s2)cc1OC | > 35.9 µM (inactive) |
| COC(=O)c1ccc(NC(=O)COc2cccc(-n3cnnn3)c2)cc1 | > 35.9 µM (inactive) |
| CCOc1ccc(NC(=O)CN2CCN(CC(=O)Nc3ccc(OC)cc3)CC2)cc1 | > 35.9 µM (inactive) |
| COC(=O)c1ccc(NC(=O)CN2CCN(c3ccc(Cl)cc3)CC2)cc1 | > 35.9 µM (inactive) |
| Cc1nn(CC(=O)Nc2ccc3c(c2)OCCO3)c(C)c1[N+](=O)[O-] | > 35.9 µM (inactive) |
| Cc1cc(OCC(=O)Nc2nccs2)c2c(C)cc(=O)oc2c1 | > 35.9 µM (inactive) |
| COc1ccc(CCNC(=O)COC(=O)Cc2ccccc2[N+](=O)[O-])cc1 | > 35.9 µM (inactive) |
| O=C(COC(=O)CCN1C(=O)C2CC=CCC2C1=O)NCCc1ccc(F)cc1 (stereo not given) | > 35.9 µM (inactive) |
| CCCc1cc(=O)oc2cc(C)cc(OCC(=O)NC3CC3)c12 | > 35.9 µM (inactive) |
| CCCc1cc(=O)oc2c(C)c(OCC(=O)NCCCn3ccnc3)ccc12 | > 35.9 µM (inactive) |
| CCCc1cc(=O)oc2c(C)c(OCC(=O)NC3CC(C)(C)NC(C)(C)C3)ccc12 | > 35.9 µM (inactive) |
| Cc1ccc(NC(=O)CSc2sc3c(O)cc(=O)[nH]c3c2C#N)c(F)c1 | > 35.9 µM (inactive) |
| CN1CCN(c2ccc(S(=O)(=O)N3CCCCC3)cc2NC(=O)COc2ccc([N+](=O)[O-])cc2)CC1 | > 35.9 µM (inactive) |
| CCc1cc(=O)[nH]c(SCC(=O)Nc2ccc3c(c2)OCCO3)n1 | > 35.9 µM (inactive) |
| O=C(OCC(=O)N1CCN(C(=O)COC(=O)c2ccc(O)cc2O)CC1)c1ccc(O)cc1O | > 35.9 µM (inactive) |
| Cc1cc(=O)oc2c(C)c(OCC(=O)NC3CC(C)(C)NC(C)(C)C3)ccc12 | > 35.9 µM (inactive) |
| N#CCSc1ccccc1NC(=O)CN1C(=O)C2CC=CCC2C1=O (stereo not given) | > 35.9 µM (inactive) |
| CCc1c(C)nc(SCC(=O)Nc2ccc3c(c2)OCCO3)[nH]c1=O | > 35.9 µM (inactive) |
| Cc1cc(C)c2sc(NC(=O)c3ccc([N+](=O)[O-])o3)nc2c1 | > 35.9 µM (inactive) |
| CC(=O)Nc1ccc(NC(=O)CSc2ccc(-c3ccco3)nn2)cc1 | > 35.9 µM (inactive) |

| SMILES | IC50 |
| --- | --- |
| COc1ccccc1Oc1nnnn1-c1ccc(C(N)=O)cc1 | > 35.9 µM (inactive) |
| Cc1ccc(NC(=O)COC(=O)c2cc(=O)c3ccccc3o2)c(Br)c1 | > 35.9 µM (inactive) |
| CCOc1ccc(NC(=O)CSc2nc3[nH]ncc3c(=O)[nH]2)cc1 | > 35.9 µM (inactive) |
| CC(=O)Nc1ccc(N=c2cc([N+](=O)[O-])cc(Cl)n2O)cc1 | > 35.9 µM (inactive) |
| O=C(COc1ccc2c3c(c(=O)oc2c1)CCC3)NCc1ccncc1 | > 35.9 µM (inactive) |
| O=C(NCc1ccco1)c1nn(-c2ccccc2)c(=O)c2ccccc12 | > 35.9 µM (inactive) |
| O=c1[nH]c(Nc2ccc3c(c2)OCCO3)nnc1Cc1ccccc1 | > 35.9 µM (inactive) |
| O=C(COC(=O)c1ccc(=O)n(Cc2ccccc2)n1)Nc1ccc2c(c1)OCCO2 | > 35.9 µM (inactive) |
| Cc1ccc(NC(=O)COC(=O)C(NS(=O)(=O)c2ccc(Cl)cc2)C(C)O)cc1C (stereo not given) | > 35.9 µM (inactive) |
| CCCc1cc(=O)oc2cc(OCC(=O)NCc3ccccn3)ccc12 | > 35.9 µM (inactive) |
| Cc1cccc(NC(=O)COC(=O)CN2C(=O)c3ccccc3C2=O)c1C | > 35.9 µM (inactive) |
| Cc1ccc(NC(=O)CSc2nc3[nH]c(=O)cc(O)c3s2)c(Br)c1 | > 35.9 µM (inactive) |
| COc1ccc(NC(=O)CSc2nnc3ccc(-c4cccnc4)nn23)cc1OC | > 35.9 µM (inactive) |
| Cc1cccc(NC(=O)COC(=O)Cc2cccs2)c1C | > 35.9 µM (inactive) |
| CCc1cc(=O)oc2c(C)c(OCC(=O)NCCN3CCOCC3)ccc12 | > 35.9 µM (inactive) |
| COc1ccc(CCNC(=O)CSc2nc3[nH]c(=O)cc(O)c3s2)cc1 | > 35.9 µM (inactive) |
| O=C(CSc1nnc(CNC(=O)c2ccccc2F)o1)Nc1ccc2c(c1)OCCO2 | > 35.9 µM (inactive) |
| CCCc1cc(=O)oc2cc(OCC(=O)NCCc3ccc(S(N)(=O)=O)cc3)ccc12 | > 35.9 µM (inactive) |
| COC(=O)c1ccc(NC(=O)CSc2nncn2-c2cccnc2)cc1 | > 35.9 µM (inactive) |
| CCCc1cc(=O)oc2c(C)c(OCC(=O)NCCN3CCOCC3)ccc12 | > 35.9 µM (inactive) |
| CCCc1nnc(SCC(=O)Nc2ccc(C(=O)OCC)cc2)o1 | > 35.9 µM (inactive) |
| COc1ccc(NC(=O)CN2C(=O)NC3(CCCC3)C2=O)cc1 | > 35.9 µM (inactive) |
| COc1ccc(NC(=O)CSc2nc(N)c(-c3ccccc3)c(=O)[nH]2)cc1 | > 35.9 µM (inactive) |
| COc1ccc(NC(=O)COC(=O)c2c(-c3ccccc3)noc2C)cc1 | > 35.9 µM (inactive) |

| SMILES | IC50 |
| --- | --- |
| O=C(CN1C(=O)CCC1=O)Nc1ccc(Br)cc1 | > 35.9 µM (inactive) |
| CC(=O)c1ccc(OC(C)C(=O)OCC(=O)NCCc2ccccc2)cc1 (stereo not given) | > 35.9 µM (inactive) |
| Cc1ccn2c(=O)nc(SCC(=O)Nc3ccc4c(c3)OCCO4)nc2c1 | > 35.9 µM (inactive) |
| COc1ccc(NC(=O)COC(=O)c2cc(S(=O)(=O)N3CCCC3)ccc2O)cc1 | > 35.9 µM (inactive) |
| O=C(COc1ccc2c3c(c(=O)oc2c1)CCCC3)NCc1ccccn1 | > 35.9 µM (inactive) |
| Cc1ccc(-c2csc(NC(=O)c3ccc([N+](=O)[O-])o3)n2)cc1 | > 35.9 µM (inactive) |
| CCOc1ccc(NC(=O)CSc2nncc(=O)n2N)cc1 | > 35.9 µM (inactive) |
| COc1ccc(C2(C)NC(=O)N(CC(=O)NCCC3=CCCCC3)C2=O)cc1OC (stereo not given) | > 35.9 µM (inactive) |
| Cc1cc(Br)ccc1NC(=O)CN1C(=O)C2CC=CCC2C1=O (stereo not given) | > 35.9 µM (inactive) |
| COC(=O)c1ccc(CNC(=O)COC(=O)c2cc(Cl)nc(Cl)c2)cc1 | > 35.9 µM (inactive) |
| Cc1ccc2cccc(OCC(=O)NCCC3=CCCCC3)c2n1 | > 35.9 µM (inactive) |
| CCOc1ccc(NC(=O)COC(=O)CC2CCCCC2)cc1 | > 35.9 µM (inactive) |
| O=C(COC(=O)c1ccc(Br)cc1)Nc1ccccc1Br | > 35.9 µM (inactive) |
| O=C(COC(=O)c1ccc[n+]([O-])c1)Nc1ccc([N+](=O)[O-])cc1Cl | > 35.9 µM (inactive) |
| COc1ccc(-n2c(N)c(C(=O)NCc3cccnc3)sc2=S)cc1 | > 35.9 µM (inactive) |
| COc1ccc(NS(=O)(=O)c2ccc(OCC(=O)N3CCN(C)CC3)cc2)cc1Cl | > 35.9 µM (inactive) |
| CCCN(CC(=O)Nc1ccc(C(C)=O)cc1)CC(=O)Nc1ccccc1C | > 35.9 µM (inactive) |
| CC(=O)c1ccc(NC(=O)C(C)O/N=C(\N)c2ccccc2)cc1 (stereo not given) | > 35.9 µM (inactive) |
| CCOc1ccc(OCCN2C(=O)NC(Cc3c[nH]c4ccccc34)C2=O)cc1 (stereo not given) | > 35.9 µM (inactive) |
| CCOc1ccc(NC(=O)COC(=O)COc2cccc3c2OC(C)(C)C3)cc1 | > 35.9 µM (inactive) |
| CCOc1ccc(NC(=O)COC(=O)c2ccc3c(c2)OCCO3)cc1 | > 35.9 µM (inactive) |
| Cc1cc(Br)ccc1NC(=O)CN1C(=O)CCC1=O | > 35.9 µM (inactive) |
| COc1ccc(CCNC(=O)COC(=O)c2cc(Cl)nc(Cl)c2)cc1 | > 35.9 µM (inactive) |
| COC(=O)c1ccc(NC(=O)CSc2ccc(-c3ccccn3)nn2)cc1 | > 35.9 µM (inactive) |

| SMILES | IC50 |
| --- | --- |
| O=C(NCC1CCCO1)c1ccc(NC(=O)c2cccc([N+](=O)[O-])c2)cc1 (stereo not given) | > 35.9 µM (inactive) |
| CCOc1ccc(NC(=O)CSc2nnc(C(C)C)n2CC)cc1 | > 35.9 µM (inactive) |
| O=C(Nc1ccc(S(=O)(=O)N2CCOCC2)cc1)c1cccc([N+](=O)[O-])c1 | > 35.9 µM (inactive) |
| Cc1cc(Br)ccc1NC(=O)CSc1nnc(CN2CCOCC2)n1C | > 35.9 µM (inactive) |
| Cc1ccc(NC(=O)COC(=O)C(NS(=O)(=O)c2ccc(Cl)cc2)C(C)O)c(Br)c1 (stereo not given) | > 35.9 µM (inactive) |
| COCC(=O)NC1CCN(CC(=O)Nc2ccc(OC)cc2[N+](=O)[O-])CC1 | > 35.9 µM (inactive) |
| COc1ccc(CCNC(=O)COC(=O)C23CC4CC(CC(C4)C2)C3)cc1 | > 35.9 µM (inactive) |
| COc1ccc(CC(NC(C)=O)C(=O)NC2CCN(c3nnnn3-c3ccccc3)CC2)cc1 (stereo not given) | > 35.9 µM (inactive) |
| COc1ccc(CCNC(=O)COC(=O)c2cccn2C)cc1 | > 35.9 µM (inactive) |
| CCOc1ccc(NC(=O)CSc2nccn(-c3ccc4c(c3)OCCO4)c2=O)cc1 | > 35.9 µM (inactive) |
| CC(C)CC1(C)NC(=O)N(CC(=O)Nc2ccc3c(c2)OCCO3)C1=O (stereo not given) | > 35.9 µM (inactive) |
| O=C(Nc1ccccc1)c1oc2ccccc2c1NC(=O)C1CC1 | > 35.9 µM (inactive) |
| COc1ccc(NC(=O)CSc2ccc3c(c2)OCCO3)cc1 | > 35.9 µM (inactive) |
| COc1ccc(NC(=O)CS(=O)(=O)c2ccc(C)cc2)c(OC)c1 | > 35.9 µM (inactive) |
| O=C(CSc1nc(=O)n2cc(Cl)ccc2n1)Nc1ccc2c(c1)OCCO2 | > 35.9 µM (inactive) |
| O=C(CSc1nnc(CNC(=O)c2c(F)cccc2F)o1)Nc1ccc2c(c1)OCCO2 | > 35.9 µM (inactive) |
| NC(=O)C1CCN(C(=O)COc2ccc3c4c(c(=O)oc3c2)CCCC4)CC1 | > 35.9 µM (inactive) |
| CCn1c(SCC(=O)Nc2ccc(Cl)cc2)nnc1C1CC1 | > 35.9 µM (inactive) |
| COc1ccc(NC(=O)CSc2sc3c(O)cc(=O)[nH]c3c2C#N)c(OC)c1 | > 35.9 µM (inactive) |
| O=C1CCCN2N=C(SCC(=O)Nc3ccc(Br)cc3)SC2=N1 | > 35.9 µM (inactive) |
| COC(=O)c1ccc(NC(=O)CSc2nc3ncccc3[nH]2)cc1 | > 35.9 µM (inactive) |
| COCCn1c(C)cc(/C=C(\C#N)C(=O)OCC(=O)Nc2ccc(S(N)(=O)=O)cc2)c1C | > 35.9 µM (inactive) |
| O=C(Nc1nc2c(Cl)cccc2s1)c1ccc([N+](=O)[O-])o1 | > 35.9 µM (inactive) |
